Measured values taken from PMC3361708 (Cell Metabolism, 2012).

Molecular target: T1, mAdpn (Mus musculus, UniProt Q91WW7)
T1 sequence (Q91WW7 1-413): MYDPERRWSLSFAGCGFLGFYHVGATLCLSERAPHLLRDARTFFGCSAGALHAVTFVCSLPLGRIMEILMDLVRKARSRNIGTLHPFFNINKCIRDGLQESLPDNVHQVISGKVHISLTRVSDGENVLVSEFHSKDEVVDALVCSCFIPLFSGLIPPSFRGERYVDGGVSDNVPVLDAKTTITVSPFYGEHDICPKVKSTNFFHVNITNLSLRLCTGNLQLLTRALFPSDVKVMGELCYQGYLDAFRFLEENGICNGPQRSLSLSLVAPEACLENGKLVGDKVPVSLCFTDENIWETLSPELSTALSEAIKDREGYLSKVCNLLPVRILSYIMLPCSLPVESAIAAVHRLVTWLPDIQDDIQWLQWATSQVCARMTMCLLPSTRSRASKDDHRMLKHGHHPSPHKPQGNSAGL
Test: radiometric LPAAT assay, TLC, Michaelis-Menten fit
Type: biochemical
Conditions: co-substrate LPA; labelled compound [1-14C]

- Km: 12.5 µM
Compound: CCCCCCCC/C=C\CCCCCCCC(=O)SCCNC(=O)CCNC(=O)[C@H](O)C(C)(C)COP(=O)(O)OP(=O)(O)OC[C@H]1O[C@@H](n2cnc3c(N)ncnc32)[C@H](O)[C@@H]1OP(=O)(O)O [oleoyl-CoA]
